pIC50: −log10 of the molar value. Structures can show the parent of a compound that is named as a salt. Where two headings read alike, the source gives them in different places.
Legend:
muscarinic receptors [1] = experiment: Radioligand binding: displacement of the muscarinic agonist 3H-Oxotremorine-M (3H-OXO-M) from rat cerebral cortex; parameters: species or system Hooded Lister rats; details: 2 nM 3H-OXO-M, rat cerebral cortex homogenate, 2 mM magnesium chloride, 37° C., 30 min, tested as the oxalate salt
muscarinic receptors [2] = type: binding, Hooded Lister rats; details: 0.27 nM 3H-QNB, rat cerebral cortex homogenate, 37° C., 30 min, tested as the oxalate salt

Structure (SMILES) | pIC50 (muscarinic receptors [1]) | pIC50 (muscarinic receptors [2]) | pIC50 (muscarinic receptors [1]; oxalate salt) | pIC50 (muscarinic receptors [2]; oxalate salt)
CCc1noc([C@@H]2CN3CC[C@@H]2C3)n1 (relative stereo) [Example E1, (±) exo-3-(3-Ethyl-1,2,4-oxadiazol-5-yl)-1-azabicyclo-[2.2.1]heptane oxalate salt] | 7.51 | 6.03 |  | 
CCc1noc(C2CN3CCC2C3)n1 (single isomer, unassigned; (+)) [Example E2, (+) exo-3-(3-Ethyl-1,2,4-oxadiazol-5-yl)-1-azabicyclo-[2.2.1]heptane oxylate salt] | 7.59 | 5.80 |  | 
CCc1noc(C2CN3CCC2C3)n1 (single isomer, unassigned; (-)) [Example E3, (-) exo-(3-Ethyl-1-1,2,4-oxadiazol-5-y1)-1-azabicyclo-[2.2.1]heptane oxalate salt] |  |  | 7.44 | 6.14
